According to patent US20220023289A1, “Application Of Pyrroloquinoline Quinone In Preparation Of Medicament Used For Preventing And Treating Acute Altitude Sickness And Acute Altitude Hypoxia Injury” (priority 2018, published 2022):

Tests used:
[1] = test system: rats exposed to acute altitude hypoxia; assay: Serum homocysteine in rats exposed to acute altitude hypoxia; format: in vivo, Wistar rat
Procedure: (§2) Select healthy Wistar rats weight 160-200 g, half female and half male. After feeding for 3 days, these Wistar rats are randomly divided into ten groups according to their body weight, each group has 16±2 rats. The groups are divided as follows: five groups of the hypoxic exposure drug test group, respectively, are given 0.91 mg/kg, 1.83 mg/kg, 3.66 mg/kg, 7.31 mg/kg, and 14.63 mg/kg drugs. […] After continuous intragastric administration for 7 days, the animals in the hypoxic exposure group are simultaneously put into the decompression and hypoxia compound experimental chamber, the hatch is closed, and the pressure is reduced at a speed of 10 m/s. After being raised to an altitude of 6000 m and maintained for 8 hours, the speed in 10 m/s drops is reduced to normal altitude, open the hatch, and then take out the animal, collect blood samples (after standing for 1 hour, the supernatant is centrifuged and stored at −20° C.), and liver tissue samples. Detection indicator includes body weight, serum blood glucose, ATP, lactic acid, endothelin, nitric oxide, SOD, CO, MDA related to oxidative stress, and total protein, albumin, triglycerides, total cholesterol, high-density lipoprotein cholesterol, low-density lipoprotein cholesterol, glutamic pyruvic transaminase, total bilirubin, gluamic oxalacetic transaminase, serum urea nitrogen, creatinine, uric acid, lactate dehydrogenase, creatine kinase, α-hydroxybutyrate dehydrogenase; liver ATP, hepatic glycogen. Except that the formal oxygen control animal group is not put into the decompression and hypoxia compound experimental chamber, other experimental conditions and detection indicators are the same.
Measure blood glucose, total protein, albumin, triglycerides, total cholesterol, high-density lipoprotein cholesterol, low-density lipoprotein cholesterol, glutamic-pyruvic transaminase, total bilirubin, glutamic oxalacetic transaminase, serum urea nitrogen, creatinine, uric acid, lactate dehydrogenase, creatine kinase, α-hydroxybutyrate dehydrogenase, blood homocysteine by using an automatic blood biochemical analyzer.

[2] = test system: rats with acute altitude hypoxia injury; assay: Oxidative stress indexes of rats with acute altitude hypoxia injury; format: in vivo, Wistar rat
Source text: Operate according to the instructions, and then measure the absorbance value of each tube, and afterwards calculate the content of malondialdehyde in the sample to be tested according to the formula. […] The latter oxidizes hydroxylamine to form nitrite. It appears purplish red under the action of chromogenic agent. Measure its absorbance by a visible light spectrophotometer. When the measured sample contains superoxide dismutase, it has specific inhibitory effect on superoxide anion free radicals, make formed nitrite reduced. […] The superoxide dismutase activity in the tested sample can be calculated by formula calculation. […] The latter can form a stable complex with phenanthrophins and measure its antioxidant capacity by colorimetry. Operate according to the kit instructions, measure the absorbance of each tube at a wavelength of 520 nm, and then calculate the total antioxidant capacity in the sample to be tested according to the formula.

[3] = test system: rats with acute altitude hypoxia injury; assay: Serum energy metabolism indexes (ATP, lactic acid) in rats with acute altitude hypoxia injury; format: in vivo, Wistar rat
Procedure: (§1) Determination of adenosine triphosphate (ATP): Perform enzyme-linked immunosorbent assay by double-antibody one-step sandwich method. To the coated microwells pre-coated with rat adenosine triphosphate (ATP) capture antibody, add in sequence the specimens, standard, and HRP-labeled detection antibody, and then incubate and wash thoroughly. Use a substrate TMB for color development, TMB is converted into blue under the catalysis of peroxidase and converted into the final yellow color under the action of acid. The color intensity is positively correlated with the rat adenosine triphosphate (ATP) in the sample. […] Determination of lactic acid (LC): Perform enzyme-linked immunosorbent assay by double-antibody one-step sandwich method. To the coated microwells pre-coated with rat lactic acid (LC) capture antibody, add in sequence the specimens, standard, and HRP-labeled detection antibody, and then incubate and wash thoroughly. Use a substrate TMB for color development. TMB is converted into blue under the catalysis of peroxidase and converted into the final yellow color under the action of acid. The color intensity is positively correlated with the rat lactic acid (LC) in the sample.

[4] = test system: rats exposed to acute altitude hypoxia; assay: Liver ATP and glycogen in rats exposed to acute altitude hypoxia; format: in vivo, Wistar rat
Procedure: as §1, with “liver glycogen (GC):” for “lactic acid (LC):”, “liver glycogen (GC)” for “lactic acid (LC)”, “development,” for “development.”

[5] = test system: mice exposed to high altitude hypoxia; assay: Exhaustive swimming experiment in mice exposed to high altitude hypoxia (6000 m); format: in vivo, Kunming mice; conditions: for Exhausted swimming survival time: 7 days
Source text: Select healthy male Kunming mice weight 18-22 g.

[6] = Rat body weight before the acute decompression hypoxia experiment (intragastric 7 days)
Procedure: as §2

[7] = female rats, hypoxia, 0.91 mg/kg
[8] = female rats, hypoxia, 1.83 mg/kg
[9] = female rats, hypoxia, 3.66 mg/kg
[10] = female rats, hypoxia, 7.31 mg/kg
[11] = female rats, hypoxia, 14.63 mg/kg
[12] = female rats, normoxia, 3.66 mg/kg
[13] = male rats, hypoxia, 14.63 mg/kg

SMILES: O=C(O)c1cc(C(=O)O)c2c(n1)C(=O)C(=O)c1cc(C(=O)O)[nH]c1-2 [PQQ, pyrroloquinoline quinone]
- Serum homocysteine [1, 7]: 9.43 ± 1.4 µmol/L
- Serum homocysteine [1, 8]: 10.66 ± 2.13 µmol/L
- Serum homocysteine [1, 9]: 9.63 ± 1.97 µmol/L
- Serum homocysteine [1, 10]: 8.6 ± 1.72 µmol/L
- Serum homocysteine [1, 11]: 8.11 ± 1.37 µmol/L
- effect on serum homocysteine ([1]; female rats, normoxia): no significant effects
- Serum homocysteine [1, 12]: 9.76 ± 1.16 µmol/L
- effect on serum homocysteine ([1]; hypoxia exposed female rats): no significant effects
- effect on serum homocysteine ([1]; hypoxia exposed male rats): have been not found
- Serum homocysteine ([1]; male rats, hypoxia, 0.91 mg/kg): 11.18 ± 2.09 µmol/L
- Serum homocysteine ([1]; male rats, hypoxia, 1.83 mg/kg): 13.24 ± 3.87 µmol/L
- Serum homocysteine ([1]; male rats, hypoxia, 3.66 mg/kg): 13.65 ± 3.24 µmol/L
- Serum homocysteine ([1]; male rats, hypoxia, 7.31 mg/kg): 11.48 ± 2.36 µmol/L
- Serum homocysteine [1, 13]: 12.78 ± 2.87 µmol/L
- Endo Dialdehyde [2, 7]: 15.07 ± 1.91 nmol/L
- Superoxide dismutase [2, 7]: 66.11 ± 4.18 U/ml
- Total antioxidants [2, 7]: 10.52 ± 1.08 U/ml
- Endo Dialdehyde [2, 8]: 13.96 ± 1.33 nmol/L
- Superoxide dismutase [2, 8]: 60.79 ± 2.56 U/ml
- Total antioxidants [2, 8]: 10.06 ± 0.77 U/ml
- Endo Dialdehyde [2, 9]: 13.73 ± 0.27 nmol/L
- Superoxide dismutase [2, 9]: 56.82 ± 3.80 U/ml
- Total antioxidants [2, 9]: 10.84 ± 0.47 U/ml
- Endo Dialdehyde [2, 10]: 14.14 ± 2.68 nmol/L
- Superoxide dismutase [2, 10]: 56.65 ± 2.97 U/ml
- Total antioxidants [2, 10]: 10.37 ± 0.75 U/ml
- Endo Dialdehyde [2, 11]: 14.81 ± 1.37 nmol/L
- Superoxide dismutase [2, 11]: 56.16 ± 3.64 U/ml
- Total antioxidants [2, 11]: 10.59 ± 1.65 U/ml
- effect on malondialdehyde ([2]; female rats, normoxia): can slightly increase
- effect on serum superoxide dismutase and total antioxidants ([2]; female rats, normoxia): no significant effects
- Endo Dialdehyde [2, 12]: 14.39 ± 0.85 nmol/L
- Superoxide dismutase [2, 12]: 52.21 ± 1.23 U/ml
- Total antioxidants [2, 12]: 11.28 ± 0.83 U/ml
- effect on serum superoxide dismutase activity ([2]; hypoxia exposed female rats): can increase
- effect on serum total antioxidants and malondialdehyde ([2]; hypoxia exposed female rats): no significant effects
- effect on serum superoxide dismutase activity ([2]; hypoxia exposed male rats): can increase
- effect on serum total antioxidants and malondialdehyde ([2]; male rats): no significant effect
- Malonaldehyde ([2]; male rats, hypoxia, 0.91 mg/kg): 2.79 ± 0.62 nmol/L
- Superoxide dismutase ([2]; male rats, hypoxia, 0.91 mg/kg): 196.26 ± 4.15 U/ml
- Total antioxidants ([2]; male rats, hypoxia, 0.91 mg/kg): 3.17 ± 1.40 U/ml
- Malonaldehyde ([2]; male rats, hypoxia, 1.83 mg/kg): 2.89 ± 1.09 nmol/L
- Superoxide dismutase ([2]; male rats, hypoxia, 1.83 mg/kg): 193.38 ± 4.53 U/ml
- Total antioxidants ([2]; male rats, hypoxia, 1.83 mg/kg): 2.77 ± 1.10 U/ml
- Malonaldehyde ([2]; male rats, hypoxia, 3.66 mg/kg): 3.9 ± 1.39 nmol/L
- Superoxide dismutase ([2]; male rats, hypoxia, 3.66 mg/kg): 189.59 ± 5.46 U/ml
- Total antioxidants ([2]; male rats, hypoxia, 3.66 mg/kg): 3.81 ± 0.97 U/ml
- Malonaldehyde ([2]; male rats, hypoxia, 7.31 mg/kg): 3.15 ± 0.99 nmol/L
- Superoxide dismutase ([2]; male rats, hypoxia, 7.31 mg/kg): 186.20 ± 6.32 U/ml
- Total antioxidants ([2]; male rats, hypoxia, 7.31 mg/kg): 3.62 ± 1.94 U/ml
- Malonaldehyde [2, 13]: 3.59 ± 1.15 nmol/L
- Superoxide dismutase [2, 13]: 179.58 ± 6.32 U/ml
- Total antioxidants [2, 13]: 1.49 ± 2.30 U/ml
- serum Lactic acid [3, 7]: 222.06 ± 12.56 ng/L
- serum Lactic acid [3, 8]: 221.04 ± 14.36 ng/L
- serum Lactic acid [3, 9]: 242.8 ± 8.13 ng/L
- serum Lactic acid [3, 10]: 196.41 ± 11.86 ng/L
- serum Lactic acid [3, 11]: 173.09 ± 24.20 ng/L
- effect on serum ATP content ([3]; female rats, normoxia): no significant effect
- effect on serum lactic acid content ([3]; female rats, normoxia): reducing
- serum Lactic acid [3, 12]: 116.73 ± 13.32 ng/L
- effect on serum ATP and lactic acid content ([3]; hypoxia exposed female rats): increasing
- effect on serum ATP and lactic acid content ([3]; male rats): no significant effects
- serum Lactic acid ([3]; male rats, hypoxia, 0.91 mg/kg): 188.70 ± 29.68 ng/L
- serum Lactic acid ([3]; male rats, hypoxia, 1.83 mg/kg): 177.33 ± 19.55 ng/L
- serum Lactic acid ([3]; male rats, hypoxia, 3.66 mg/kg): 189.12 ± 24.64 ng/L
- serum Lactic acid ([3]; male rats, hypoxia, 7.31 mg/kg): 172.64 ± 12.25 ng/L
- serum Lactic acid [3, 13]: 180.81 ± 24.64 ng/L
- effect on liver ATP and glycogen content ([4]; female rats, after hypoxia exposure and normoxia): no significant effects
- liver Glycogen [4, 7]: 2.52 ± 0.36 ng/mL
- liver ATP [4, 8]: 1.58 ± 0.27 µg/mL
- liver Glycogen [4, 8]: 2.89 ± 0.57 ng/mL
- liver ATP [4, 9]: 1.64 ± 0.37 µg/mL
- liver Glycogen [4, 9]: 2.84 ± 0.67 ng/mL
- liver Glycogen [4, 10]: 3.07 ± 0.19 ng/mL
- liver Glycogen [4, 11]: 3.62 ± 0.38 ng/mL
- liver ATP [4, 12]: 1.62 ± 0.13 µg/mL
- liver Glycogen [4, 12]: 2.89 ± 0.28 ng/mL
- effect on liver ATP and glycogen content ([4]; male rats): can increase
- liver Glycogen ([4]; male rats, hypoxia, 0.91 mg/kg): 2.41 ± 0.41 ng/mL
- liver Glycogen ([4]; male rats, hypoxia, 1.83 mg/kg): 2.23 ± 0.17 ng/mL
- liver Glycogen ([4]; male rats, hypoxia, 3.66 mg/kg): 2.70 ± 0.84 ng/mL
- liver Glycogen ([4]; male rats, hypoxia, 7.31 mg/kg): 2.86 ± 0.43 ng/mL
- liver Glycogen [4, 13]: 2.55 ± 0.28 ng/mL
- start time of exhaustion swimming death ([5]; male mice, 6000 m): delayed
- increasing rate of survival time ([5]; male mice, 6000 m, 1.32 mg/kg): 52.49%
- increasing rate of survival time ([5]; male mice, 6000 m, 2.64 mg/kg): 109.05%
- increasing rate of survival time ([5]; male mice, 6000 m, 5.28 mg/kg): 32.54%
- increasing rate of survival time ([5]; male mice, 6000 m, 10.56 mg/kg): 49.30%
- increasing rate of survival time ([5]; male mice, 6000 m, 21.12 mg/kg): 101.47%
- Exhausted swimming survival time ([5]; male mice, 6000 m, 1.32 mg/kg): 199.21 ± 98.54 min
- Exhausted swimming survival time ([5]; male mice, 6000 m, 2.64 mg/kg): 273.10 ± 63.07 min
- Exhausted swimming survival time ([5]; male mice, 6000 m, 5.28 mg/kg): 173.15 ± 116.32 min
- Exhausted swimming survival time ([5]; male mice, 6000 m, 10.56 mg/kg): 195.04 ± 59.81 min
- Exhausted swimming survival time ([5]; male mice, 6000 m, 21.12 mg/kg): 263.20 ± 48.27 min
- time at which mice are completely dead ([5]; male mice, 6000 m, each PQQ dose group): about 400 minutes
- effect on survival time after exhausting swimming / working ability under hypoxia ([5]; mice under low oxygen exposure): can prolong the survival time of mice after exhausting swimming
- rat body weight Female 1 day ([6]; 0.91 mg/kg): 154.4 ± 7.2 g
- rat body weight Female 7 days ([6]; 0.91 mg/kg): 169.6 ± 3.3 g
- rat body weight Male 1 day ([6]; 0.91 mg/kg): 173.4 ± 7.4 g
- rat body weight Male 7 days ([6]; 0.91 mg/kg): 196.4 ± 5.7 g
- rat body weight Female 1 day ([6]; 1.83 mg/kg): 153.6 ± 6.9 g
- rat body weight Female 7 days ([6]; 1.83 mg/kg): 167.4 ± 6.7 g
- rat body weight Male 1 day ([6]; 1.83 mg/kg): 173.6 ± 5.9 g
- rat body weight Male 7 days ([6]; 1.83 mg/kg): 206.8 ± 6.2 g
- rat body weight Female 1 day ([6]; 3.66 mg/kg): 154.1 ± 8.6 g
- rat body weight Female 7 days ([6]; 3.66 mg/kg): 172.1 ± 2.2 g
- rat body weight Male 1 day ([6]; 3.66 mg/kg): 170.8 ± 10.8 g
- rat body weight Male 7 days ([6]; 3.66 mg/kg): 198.3 ± 9.0 g
- rat body weight Female 1 day ([6]; 7.31 mg/kg): 154.3 ± 7.7 g
- rat body weight Female 7 days ([6]; 7.31 mg/kg): 171.1 ± 8.6 g
- rat body weight Male 1 day ([6]; 7.31 mg/kg): 169.9 ± 9.9 g
- rat body weight Male 7 days ([6]; 7.31 mg/kg): 198.6 ± 11.6 g
- rat body weight Female 1 day ([6]; 14.63 mg/kg): 152.7 ± 7.2 g
- rat body weight Female 7 days ([6]; 14.63 mg/kg): 166.0 ± 4.1 g
- rat body weight Male 1 day ([6]; 14.63 mg/kg): 171.6 ± 10 g
- rat body weight Male 7 days ([6]; 14.63 mg/kg): 199.6 ± 12.5 g
- effect on body weight ([6]; female rats, 7 days): did not affect
- effect on weight ([6]; male rats, 7 days): did not affect
